One experiment addresses α-glucosidase (yeast). The experiment can be described thus: chromogenic pNPG hydrolysis assay ([…] nm), commercial yeast enzyme. The class given is biochemical.
Experiment [1] concerns the target T1, α-amylase (porcine pancreatic amylase) (Sus scrofa, UniProt P00690).
T1 construct: gene AMY2
T1 sequence (P00690 16-511): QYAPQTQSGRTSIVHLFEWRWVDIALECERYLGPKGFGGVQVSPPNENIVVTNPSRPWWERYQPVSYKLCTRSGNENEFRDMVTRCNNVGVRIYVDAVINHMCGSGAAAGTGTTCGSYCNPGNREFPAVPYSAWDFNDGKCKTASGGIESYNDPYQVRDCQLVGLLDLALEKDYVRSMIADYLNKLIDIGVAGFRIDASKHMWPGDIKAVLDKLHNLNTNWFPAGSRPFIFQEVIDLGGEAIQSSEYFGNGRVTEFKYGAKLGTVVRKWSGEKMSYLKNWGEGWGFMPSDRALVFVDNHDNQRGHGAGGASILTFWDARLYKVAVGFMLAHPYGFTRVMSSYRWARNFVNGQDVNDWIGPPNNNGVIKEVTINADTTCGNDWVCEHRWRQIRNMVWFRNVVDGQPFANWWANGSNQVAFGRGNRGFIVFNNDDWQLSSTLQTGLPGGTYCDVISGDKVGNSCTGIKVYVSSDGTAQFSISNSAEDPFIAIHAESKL
In words: chromogenic enzyme inhibition assay ([…] nm), commercial porcine pancreatic amylase. The class given is biochemical.

The results in this text go back to publication PMC6130562, “A phlorotannin constituent of Ecklonia cava alleviates postprandial hyperglycemia in diabetic mice” (Pharmaceutical Biology, 2017).

In the case of `Oc1cc(O)cc(Oc2cc(O)c3c(c2-c2c(O)cc(O)c4c2Oc2c(O)cc(Oc5c(O)cc(O)cc5O)c(Oc5cc(O)cc(O)c5)c2O4)Oc2c(O)cc(O)c(Oc4cc(O)cc(O)c4)c2O3)c1` [2,7″-Phloroglucinol-6,6′-bieckol], the IC50 worked out at 23.4 µM against α-glucosidase (yeast) and 6.94 µM in experiment [1].

For orientation: IC50 means the concentration that inhibits the measured activity by half. Read a high IC50 as a need for much substance.
